Laboratory results as given in BigSolDB 2.1.

O=C(Nc1c(Cl)cncc1Cl)c1ccc(OC(F)F)c(OCC2CC2)c1
solubility (mole fraction)
Settings | 278.2 K | 283.2 K | 288.2 K | 293.2 K | 298.2 K | 303.2 K | 308.2 K | 313.2 K | 318.2 K | 323.2 K
in 2-butanone | 0.000102 | 0.00013 | 0.000165 | 0.000204 | 0.000264 | 0.000351 | 0.000448 | 0.000586 | 0.00081 | 0.00118
in 2-pentanone | 7.4e-05 | 9.8e-05 | 0.000114 | 0.00016 | 0.000219 | 0.000311 | 0.000402 | 0.000551 | 0.000756 | 0.00101
in DMF | 4e-06 | 6e-06 | 8e-06 | 1.3e-05 | 1.9e-05 | 3.1e-05 | 4.3e-05 | 6.1e-05 | 8.6e-05 | 0.000119
in DMSO | 3.3e-05 | 4.2e-05 | 6.3e-05 | 9e-05 | 0.000132 | 0.000171 | 0.000236 | 0.00033 | 0.000457 | 0.000629
in ethanol | 6.5e-05 | 8.8e-05 | 0.000106 | 0.00015 | 0.000208 | 0.000297 | 0.000387 | 0.000533 | 0.000734 | 0.000989
in n-butanol | 4.5e-05 | 6.2e-05 | 7.8e-05 | 0.000112 | 0.000156 | 0.000226 | 0.000296 | 0.000411 | 0.00057 | 0.000782
in n-propanol | 4.9e-05 | 7.6e-05 | 9.4e-05 | 0.000131 | 0.000175 | 0.000244 | 0.000328 | 0.000455 | 0.000625 | 0.000868
